Assays:
CDK1/Cyclin B = target: T1, CDK1/Cyclin B (Homo sapiens, UniProt P06493); assay: Enzymatic assay for CDK1 (LANCE Ultra kinase assay, FRET based); format: biochemical; conditions: ATP at Km; read-out: CDK1 enzymatic activity IC50
T1 construct: purchased Invitrogen PR4768C
Method in brief: (§1)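 Purified CDK–cyclin enzyme, ATP at Km; ULight peptide substrate; TR-FRET via Eu anti-phospho-Ab; inhibition scored.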

CDK2/Cyclin A = target: T2, CDK2/Cyclin A (Homo sapiens, UniProt P24941); assay: Enzymatic assay for CDK2 (LANCE Ultra kinase assay, FRET based); format: biochemical; conditions: ATP at Km
T2 construct: purchased Invitrogen PV6290
Method in brief: (§2)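 Inhibition was measured at ATP Km with 68 nM ULight-MBP peptide and CDK2/Cyclin A ([…]) or CDK5/p25 ([…]), using 8-dose 4-fold compound dilutions from DMSO. Kinase reaction ran 60 min at 23° C, then Eu anti-phospho-MBP plus EDTA were added for another 60 min before the fluorescence read.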

CDK5/p25 = target: T3, CDK5/p25 (Homo sapiens, UniProt Q00535); assay: Enzymatic assay for CDK5 (LANCE Ultra kinase assay, FRET based); format: biochemical; conditions: ATP at Km
T3 construct: purchased Invitrogen PR8543B
Method in brief: as §2

CDK7/Cyclin H/MNAT1 = target: T4, CDK7/Cyclin H/MNAT1 (Homo sapiens, UniProt P50613); assay: Enzymatic assay for CDK7 (LANCE Ultra kinase assay, FRET based); format: biochemical; conditions: for IC50: ATP at Km
T4 construct: purchased Invitrogen PR6749B
Method in brief: as §1

A2780 = A2780 viability assay (CellTiter-Glo, 72 hours); format: cell-based; conditions: Homo sapiens; A2780 cells
Method in brief: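 RPMI-1640/10% FBS; plate cells (MV4-11 1×10^4, OVCAR-3 5×10^3, A2780 1×10^3 per well); 24 h later add compound 0.0015–10 uM; 72 h, 37° C; CellTiter-Glo luminescence, duplicate wells.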

OVCAR-3 = OVCAR-3 viability assay (CellTiter-Glo, 72 hours); format: cell-based; conditions: Homo sapiens; OVCAR-3 cells
Protocol: Human […] cell line, MV4-11_(ATCC, Cat #CRL-9591), NSCLC (Non-small cell lung cancer) cell line H460 (ATCC, Cat #HTB-177), A2780 (ECACC, Cat #93112519) and OVCAR-3(ATCC, Cat #HTB-161) were obtained from ATCC. Cells were grown in RPMI-1640 media (Invitrogen, Cat #22400-089) supplemented with 10% FBS (Invitrogen, Cat #10099141) and 1% penicillin/streptomycin (Invitrogen, Cat #15070063) and cultured at 37° C., 5% CO2 in a humidified chamber. All cell lines were routinely tested for mycoplasma.
To effect of the CDK7 inhibitor to inhibit the growth of target cancer cells, viability assay were conducted a 72 hour time period. Briefly, the candidate cell line was plated in 96 well plate at the following density of cells respectively. 1×10^4 cells/well for MV4-11, 5×10^3 for H460 and OVCAR-3, and 1×10^3 for A2780. After 24 hours, the cells were treated with various concentrations of the compound (ranging from 0.0015 uM to 10 uM). DMSO solvent without compound served as a control and final DMSO concentration lest than 0.1%. After 72 hours of incubation at 37° C., 5% CO2 incubator, cells were analyzed for the viability using the CellTiter-Glo Luminescent Cell Viability Assay (Promega, Cat #G7570). All viability assays were performed in duplicate and Luminescence was read using an Envision (Perkin Elmer, USA). Data was analyzed using XLfit software.

T3 sequence (Q00535 whole entry): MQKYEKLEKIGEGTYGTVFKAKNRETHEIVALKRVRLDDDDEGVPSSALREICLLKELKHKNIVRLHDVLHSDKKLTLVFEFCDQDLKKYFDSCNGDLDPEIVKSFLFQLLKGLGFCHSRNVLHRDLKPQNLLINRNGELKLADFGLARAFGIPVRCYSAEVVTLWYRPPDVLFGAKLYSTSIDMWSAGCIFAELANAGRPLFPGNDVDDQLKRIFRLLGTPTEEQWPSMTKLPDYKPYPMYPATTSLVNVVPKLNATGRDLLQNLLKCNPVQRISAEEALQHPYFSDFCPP
T3 sequence (Q15078 99-307 partner limits assumed): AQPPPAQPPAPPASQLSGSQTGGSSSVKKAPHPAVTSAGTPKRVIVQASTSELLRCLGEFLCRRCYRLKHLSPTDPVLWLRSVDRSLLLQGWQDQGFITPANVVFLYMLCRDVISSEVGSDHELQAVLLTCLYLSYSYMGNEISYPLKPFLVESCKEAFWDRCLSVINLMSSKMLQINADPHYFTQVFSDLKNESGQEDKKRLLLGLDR
T1 sequence (P06493 whole entry): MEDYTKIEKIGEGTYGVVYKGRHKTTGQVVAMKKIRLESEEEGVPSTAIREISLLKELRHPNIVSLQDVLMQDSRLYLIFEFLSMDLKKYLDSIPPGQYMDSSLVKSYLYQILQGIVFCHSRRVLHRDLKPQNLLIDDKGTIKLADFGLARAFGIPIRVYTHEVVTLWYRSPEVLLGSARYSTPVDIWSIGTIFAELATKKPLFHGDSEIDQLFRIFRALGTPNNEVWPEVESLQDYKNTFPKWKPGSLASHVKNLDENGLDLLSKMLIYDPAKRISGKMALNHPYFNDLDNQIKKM
T1 sequence (P14635 whole entry partner): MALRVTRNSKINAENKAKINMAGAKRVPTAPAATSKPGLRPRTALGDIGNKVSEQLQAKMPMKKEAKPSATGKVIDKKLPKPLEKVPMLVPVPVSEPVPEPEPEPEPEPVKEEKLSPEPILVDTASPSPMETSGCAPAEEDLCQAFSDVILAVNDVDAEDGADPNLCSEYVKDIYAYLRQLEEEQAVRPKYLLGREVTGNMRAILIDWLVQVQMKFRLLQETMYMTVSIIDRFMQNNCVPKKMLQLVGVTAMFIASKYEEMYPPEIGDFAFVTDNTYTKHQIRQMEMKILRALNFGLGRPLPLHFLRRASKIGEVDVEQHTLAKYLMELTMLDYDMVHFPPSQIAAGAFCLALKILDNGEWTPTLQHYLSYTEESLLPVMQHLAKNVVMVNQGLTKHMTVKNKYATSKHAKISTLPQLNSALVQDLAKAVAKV
T4 sequence (P50613 whole entry): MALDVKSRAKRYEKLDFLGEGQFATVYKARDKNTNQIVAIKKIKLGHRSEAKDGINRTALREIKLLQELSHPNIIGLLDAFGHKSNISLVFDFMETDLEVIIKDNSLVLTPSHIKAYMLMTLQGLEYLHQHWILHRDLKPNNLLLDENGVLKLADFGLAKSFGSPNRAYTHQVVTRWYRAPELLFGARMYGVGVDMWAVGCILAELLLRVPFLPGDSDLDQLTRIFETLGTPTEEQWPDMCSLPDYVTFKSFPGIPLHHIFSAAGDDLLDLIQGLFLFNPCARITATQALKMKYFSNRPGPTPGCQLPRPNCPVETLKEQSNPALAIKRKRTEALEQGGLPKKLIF
T4 sequence (P51946 whole entry partner): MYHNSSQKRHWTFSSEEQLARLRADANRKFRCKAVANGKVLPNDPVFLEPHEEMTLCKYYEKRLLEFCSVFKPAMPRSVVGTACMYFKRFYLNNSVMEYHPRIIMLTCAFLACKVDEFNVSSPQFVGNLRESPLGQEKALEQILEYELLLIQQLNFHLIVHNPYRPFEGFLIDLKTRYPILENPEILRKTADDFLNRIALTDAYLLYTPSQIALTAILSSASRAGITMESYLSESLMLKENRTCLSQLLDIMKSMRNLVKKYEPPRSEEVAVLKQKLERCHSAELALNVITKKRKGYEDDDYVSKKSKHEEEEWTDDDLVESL
T4 sequence (P51948 whole entry partner): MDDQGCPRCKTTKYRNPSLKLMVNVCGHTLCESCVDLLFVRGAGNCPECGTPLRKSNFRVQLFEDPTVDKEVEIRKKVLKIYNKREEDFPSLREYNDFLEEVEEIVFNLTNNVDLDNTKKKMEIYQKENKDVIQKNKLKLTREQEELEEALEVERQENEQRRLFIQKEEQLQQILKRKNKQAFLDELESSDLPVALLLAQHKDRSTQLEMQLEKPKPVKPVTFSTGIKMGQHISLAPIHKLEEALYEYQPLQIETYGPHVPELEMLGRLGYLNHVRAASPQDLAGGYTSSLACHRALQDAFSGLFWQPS

IC50 (CDK1/Cyclin B)	IC50 (CDK2/Cyclin A)	IC50 (CDK5/p25)	IC50 (CDK7/Cyclin H/MNAT1)	CDK1/CDK7: Selectivity of CDK7 inhibition over CDK1 inhibition (CDK7/Cyclin H/MNAT1)	CDK2/CDK7: Selectivity of CDK7 inhibition over CDK2 inhibition (CDK7/Cyclin H/MNAT1)	CDK5/CDK7: Selectivity of CDK7 inhibition over CDK5 inhibition (CDK7/Cyclin H/MNAT1)	IC50 (A2780)	IC50 (OVCAR-3)	Compound
> 1000 nM	> 1000 nM	> 1000 nM	100 to 1000 nM	B (B indicates 50 < [fold] ≤ 500)	B (B indicates 50 < [fold] ≤ 500)	B (B indicates 50 < [fold] ≤ 500)	< 1000 nM	< 1000 nM	C=C(F)C(=O)Nc1ccc2c(-c3ccccc3CNc3nc(NC4CCC(OC)C4)nc4c(C(C)C)cnn34)nccc2c1 (single isomer, unassigned) [Compound 97]
> 1000 nM	> 1000 nM	> 1000 nM	100 to 1000 nM	B (B indicates 50 < [fold] ≤ 500)	B (B indicates 50 < [fold] ≤ 500)	B (B indicates 50 < [fold] ≤ 500)	< 1000 nM	< 1000 nM	C=C(F)C(=O)Nc1ccc2c(-c3ccccc3CNc3cc(NC4CCC(OC)CC4)nc4c(C(C)C)cnn34)nccc2c1 (stereo not drawn) [Compound 81]
> 1000 nM	> 1000 nM	> 1000 nM	< 100 nM	A (A indicates [fold] > 500)	A (A indicates [fold] > 500)	A (A indicates [fold] > 500)	< 1000 nM	< 1000 nM	C=C(F)C(=O)Nc1ccc2c(-c3ccccc3CNc3cc(NC[C@H]4CCNC[C@@H]4O)nc4c(C(C)C)cnn34)nccc2c1 [Compound 82]
> 1000 nM	> 1000 nM	> 1000 nM	< 100 nM	A (A indicates [fold] > 500)	A (A indicates [fold] > 500)	A (A indicates [fold] > 500)	< 1000 nM	< 1000 nM	C=C(F)C(=O)Nc1ccc2c(-c3ccccc3CNc3nc(NC[C@H]4CNC[C@@H]4O)nc4c(C(C)C)cnn34)nccc2c1 [Compound 83]
> 1000 nM	> 1000 nM	> 1000 nM	100 to 1000 nM	B (B indicates 50 < [fold] ≤ 500)	B (B indicates 50 < [fold] ≤ 500)	B (B indicates 50 < [fold] ≤ 500)	< 1000 nM	< 1000 nM	C=C(F)C(=O)Nc1ccc2c(-c3ccccc3CNc3nc(NC4CCC(OC)CC4)nc4c(C(C)C)cnn34)nccc2c1 (stereo not drawn) [Compound 84]
> 1000 nM	> 1000 nM	> 1000 nM	100 to 1000 nM	B (B indicates 50 < [fold] ≤ 500)	B (B indicates 50 < [fold] ≤ 500)	B (B indicates 50 < [fold] ≤ 500)	< 1000 nM	< 1000 nM	C=C(F)C(=O)Nc1ccc2c(-c3ccccc3CNc3nc(N4CCC(OCC)CC4)nc4c(C(C)C)cnn34)nccc2c1 [Compound 85]
> 1000 nM	> 1000 nM	> 1000 nM	> 1000 nM	C (C indicates [fold] ≤ 50)	C (C indicates [fold] ≤ 50)	C (C indicates [fold] ≤ 50)	1000 to 10000 nM	< 1000 nM	C=C(F)C(=O)Nc1ccc2c(-c3ccccc3CNc3nc(N4CCC(OC(F)(F)F)CC4)nc4c(C(C)C)cnn34)nccc2c1 [Compound 86]
> 1000 nM	> 1000 nM	> 1000 nM	100 to 1000 nM	B (B indicates 50 < [fold] ≤ 500)	B (B indicates 50 < [fold] ≤ 500)	B (B indicates 50 < [fold] ≤ 500)	< 1000 nM	< 1000 nM	C=C(F)C(=O)Nc1ccc2c(-c3ccccc3CNc3nc(N4CCC(OC)CC4)nc4c(C(C)C)cnn34)nccc2c1 [Compound 88]
> 1000 nM	> 1000 nM	> 1000 nM	> 1000 nM	C (C indicates [fold] ≤ 50)	C (C indicates [fold] ≤ 50)	C (C indicates [fold] ≤ 50)	1000 to 10000 nM	1000 to 10000 nM	C=C(F)C(=O)Nc1ccc2c(-c3ccccc3CNc3nc(N4CCC(OC(C)C)CC4)nc4c(C(C)C)cnn34)nccc2c1 [Compound 89]
> 1000 nM	> 1000 nM	> 1000 nM	100 to 1000 nM	B (B indicates 50 < [fold] ≤ 500)	B (B indicates 50 < [fold] ≤ 500)	B (B indicates 50 < [fold] ≤ 500)	< 1000 nM	< 1000 nM	C=C(F)C(=O)Nc1ccc2c(-c3ccccc3CNc3nc(N4CCC(F)CC4)nc4c(C(C)C)cnn34)nccc2c1 [Compound 90]
> 1000 nM	> 1000 nM	> 1000 nM	100 to 1000 nM	B (B indicates 50 < [fold] ≤ 500)	B (B indicates 50 < [fold] ≤ 500)	B (B indicates 50 < [fold] ≤ 500)	< 1000 nM	< 1000 nM	C=C(F)C(=O)Nc1ccc2c(-c3ccccc3CNc3cc(N4CCC(OC)CC4)nc4c(C(C)C)cnn34)nccc2c1 [Compound 91]
> 1000 nM	> 1000 nM	> 1000 nM	100 to 1000 nM	B (B indicates 50 < [fold] ≤ 500)	B (B indicates 50 < [fold] ≤ 500)	B (B indicates 50 < [fold] ≤ 500)	< 1000 nM	< 1000 nM	C=C(F)C(=O)Nc1ccc2c(-c3ccccc3CNc3nc(NC4CCOC4)nc4c(C(C)C)cnn34)nccc2c1 (stereo not drawn) [Compound 92]
> 1000 nM	> 1000 nM	> 1000 nM	> 1000 nM	C (C indicates [fold] ≤ 50)	C (C indicates [fold] ≤ 50)	C (C indicates [fold] ≤ 50)	< 1000 nM	1000 to 10000 nM	C=C(F)C(=O)Nc1cccc2ccc(-c3cccc(C)c3CNc3nc(N4CCC(OC)CC4)nc4c(C(C)C)cnn34)nc12 [Compound 93]
> 1000 nM	> 1000 nM	> 1000 nM	< 100 nM	A (A indicates [fold] > 500)	A (A indicates [fold] > 500)	A (A indicates [fold] > 500)	< 1000 nM	< 1000 nM	C=C(F)C(=O)Nc1ccc2c(-c3ccccc3CNc3cc(NCC4CNCCO4)nc4c(C(C)C)cnn34)nccc2c1 (stereo not drawn) [Compound 94]
> 1000 nM	> 1000 nM	> 1000 nM	< 100 nM	A (A indicates [fold] > 500)	A (A indicates [fold] > 500)	A (A indicates [fold] > 500)	< 1000 nM	< 1000 nM	C=CC(=O)Nc1ccc2c(-c3ccccc3CNc3nc(N[C@H]4CC[C@H](OC)CC4)nc4c(C(C)C)cnn34)nccc2c1 [Compound 95]

Reference: patent US12606561B2, “Substituted pyrazolo[1,5-a][1,3,5]triazines as CDK inhibitors” (QURIENT CO., LTD., priority 2018, dated 2026)
